How the values were obtained:
Min mouse = test: Polyp number in Min mouse model; assay type: in vivo; conditions: for Polyp Number (Mean + S.D.), Colon / Polyp Number (Mean + S.D.), Small intestine / Polyp Number (Mean + S.D.), Total / % Inhibition vs. VH: Min mouse; for % Inhibition vs. VH: total polyp number vs. vehicle
Method: COMPOUND 4, COMPOUND 5, or vehicle was administrated in wild type and Min mice. COMPOUND 4 is also an analog of COMPOUND 1 (FIG. 1A). The numbers of polyp formed in small intestine and colon of these mice after various treatments were measured (Table 6).

A549 = conditions: human
Method: (§1) Cytotoxicity of COMPOUND 3 (an analog of COMPOUND 1, FIG. 1A) and other anticancer therapeutics were measured using cancer cells with various origins.

HL60 = conditions: human
Method: as §1

RPM17951 = conditions: human
Method: as §1

293 = conditions: human
Method: as §1

PC3 = conditions: human
Method: as §1

MCF7 = conditions: human
Method: as §1

SW480 cells = test: Soft agar colony formation assay with SW480 cells; assay type: cell-based, human; conditions: Homo sapiens, 192 h, 5000 cells/well, colonies counted after 8 days

SMILES | Cytotoxicity (A549) | Cytotoxicity (HL60) | Cytotoxicity (RPM17951) | Cytotoxicity 293 | Cytotoxicity (PC3) | Cytotoxicity (MCF7) | further results
CC1=C(CC(=O)O)c2cc(F)ccc2/C1=C\c1ccc([S+](C)[O-])cc1 (stereo not shown) [Sulindac, reference compound] |  |  |  |  |  |  | Polyp Number (Mean + S.D.), Colon (Min mouse; 160 ppm): 0.5 ± 0.5; Polyp Number (Mean + S.D.), Small intestine (Min mouse; 160 ppm): 48.0 ± 20.7; Polyp Number (Mean + S.D.), Total (Min mouse; 160 ppm): 48.5 ± 20.9; % Inhibition vs. VH (Min mouse; 160 ppm): 28%
O=c1[nH]cc(F)c(=O)[nH]1 [5-FU, 5-fluorouracil] | 1.007 µg/mL | 7.010 µg/mL | 0.920 µg/mL | 2.015 µg/mL | >10 µg/mL | 1.751 µg/mL | IC50 (SW480 cells): 1980 ± 170 nM
COc1cccc2c1C(=O)c1c(O)c3c(c(O)c1C2=O)C[C@@](O)(C(=O)CO)C[C@@H]3O[C@H]1C[C@H](N)[C@H](O)[C@H](C)O1 [ADR, adriamycin] | 0.117 µg/mL | 0.086 µg/mL | 0.171 µg/mL | <0.03 µg/mL | 0.267 µg/mL | 1.424 µg/mL | 
CN1CC(=O)N2C(Cc3ccc(O)cc3)C(=O)N(Cc3cccc4cccnc34)CC2N1C(=O)NCc1ccccc1 (stereo not shown) [COMPOUND 4] |  |  |  |  |  |  | Effect on number of polyp compared to vehicle control (Min mouse; Min mice, about 300 mpk): reduce the number of polyp; Polyp Number (Mean + S.D.), Colon (Min mouse; 300 mpk): 1.4 ± 0.9; Polyp Number (Mean + S.D.), Small intestine (Min mouse; 300 mpk): 45.2 ± 22.1; Polyp Number (Mean + S.D.), Total (Min mouse; 300 mpk): 46.8 ± 17.0; % Inhibition vs. VH (Min mouse; 300 mpk): 31%
